Source: ChEMBL document CHEMBL5465560, “Selectivity Literature for EUbOPEN Chemogenomic Library” (2024)

How the values were obtained:
[1] = molecular target: Serine/threonine-protein kinase 24 (Homo sapiens) (UniProt Q9Y6E0); assay: Selectivity interaction (Kinase panel (DSF assay)) EUB0001558a STK24
[2] = molecular target: T1, Inhibitor of nuclear factor kappa-B kinase subunit beta (Homo sapiens) (UniProt O14920); assay: Selectivity interaction (KinomeScan (DiscoverX)) EUB0000229b IKBKB; settings: at 10 µM
T1 sequence (whole entry): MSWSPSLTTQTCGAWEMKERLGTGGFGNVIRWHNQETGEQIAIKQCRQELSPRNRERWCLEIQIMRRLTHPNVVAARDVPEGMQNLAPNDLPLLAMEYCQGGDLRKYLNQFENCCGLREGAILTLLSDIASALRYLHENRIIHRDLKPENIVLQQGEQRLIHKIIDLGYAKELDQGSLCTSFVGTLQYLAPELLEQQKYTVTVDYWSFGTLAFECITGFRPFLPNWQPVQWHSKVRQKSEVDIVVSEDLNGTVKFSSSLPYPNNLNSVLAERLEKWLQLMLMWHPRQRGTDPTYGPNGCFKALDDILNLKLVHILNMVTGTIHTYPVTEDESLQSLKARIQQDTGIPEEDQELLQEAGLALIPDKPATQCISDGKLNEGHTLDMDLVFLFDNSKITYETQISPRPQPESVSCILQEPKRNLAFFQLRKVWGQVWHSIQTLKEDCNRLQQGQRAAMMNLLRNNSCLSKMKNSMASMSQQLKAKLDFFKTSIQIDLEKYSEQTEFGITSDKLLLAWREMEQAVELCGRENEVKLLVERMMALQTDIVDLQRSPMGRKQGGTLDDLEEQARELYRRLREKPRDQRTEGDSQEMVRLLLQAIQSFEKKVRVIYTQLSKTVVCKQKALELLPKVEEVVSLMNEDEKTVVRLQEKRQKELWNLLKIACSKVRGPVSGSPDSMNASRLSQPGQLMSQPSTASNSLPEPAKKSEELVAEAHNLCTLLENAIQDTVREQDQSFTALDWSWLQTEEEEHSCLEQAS

[3] = molecular target: T2, Serine/threonine-protein kinase BRSK1 (Homo sapiens) (UniProt Q8TDC3); assay: Selectivity interaction (KinomeScan (DiscoverX)) EUB0000092b BRSK1; settings: at 10 µM
T2 sequence (whole entry): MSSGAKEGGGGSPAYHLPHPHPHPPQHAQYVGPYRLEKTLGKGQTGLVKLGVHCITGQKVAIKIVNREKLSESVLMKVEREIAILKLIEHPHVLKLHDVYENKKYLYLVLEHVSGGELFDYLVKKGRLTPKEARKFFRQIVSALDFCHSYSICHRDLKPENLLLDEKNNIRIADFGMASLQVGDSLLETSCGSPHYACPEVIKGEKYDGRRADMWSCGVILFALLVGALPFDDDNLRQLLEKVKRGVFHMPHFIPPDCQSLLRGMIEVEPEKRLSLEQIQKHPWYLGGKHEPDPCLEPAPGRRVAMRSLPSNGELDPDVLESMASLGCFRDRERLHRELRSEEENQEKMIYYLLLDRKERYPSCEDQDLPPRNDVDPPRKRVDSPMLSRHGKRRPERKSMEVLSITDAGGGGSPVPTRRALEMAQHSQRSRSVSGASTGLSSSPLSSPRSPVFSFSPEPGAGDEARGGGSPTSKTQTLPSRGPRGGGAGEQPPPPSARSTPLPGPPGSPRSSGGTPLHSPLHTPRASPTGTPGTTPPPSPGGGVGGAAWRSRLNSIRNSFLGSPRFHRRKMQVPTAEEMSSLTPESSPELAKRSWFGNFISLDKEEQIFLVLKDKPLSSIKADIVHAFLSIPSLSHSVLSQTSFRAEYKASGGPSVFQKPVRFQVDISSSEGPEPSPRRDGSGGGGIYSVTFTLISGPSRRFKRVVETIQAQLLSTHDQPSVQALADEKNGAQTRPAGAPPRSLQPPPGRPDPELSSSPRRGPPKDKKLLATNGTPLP

[4] = molecular target: Protein kinase C beta type (Homo sapiens, UniProt P05771); assay: Selectivity interaction (Upstate Kinase Profiler service (Millipore)) EUB0000056c PRKCB; settings: at 1 µM
[5] = molecular target: T3, Serine/threonine-protein kinase DCLK1 (Homo sapiens) (UniProt O15075); assay: Selectivity interaction (Kinase panel (DSF assay)) EUB0001559a DCLK1
T3 sequence (whole entry): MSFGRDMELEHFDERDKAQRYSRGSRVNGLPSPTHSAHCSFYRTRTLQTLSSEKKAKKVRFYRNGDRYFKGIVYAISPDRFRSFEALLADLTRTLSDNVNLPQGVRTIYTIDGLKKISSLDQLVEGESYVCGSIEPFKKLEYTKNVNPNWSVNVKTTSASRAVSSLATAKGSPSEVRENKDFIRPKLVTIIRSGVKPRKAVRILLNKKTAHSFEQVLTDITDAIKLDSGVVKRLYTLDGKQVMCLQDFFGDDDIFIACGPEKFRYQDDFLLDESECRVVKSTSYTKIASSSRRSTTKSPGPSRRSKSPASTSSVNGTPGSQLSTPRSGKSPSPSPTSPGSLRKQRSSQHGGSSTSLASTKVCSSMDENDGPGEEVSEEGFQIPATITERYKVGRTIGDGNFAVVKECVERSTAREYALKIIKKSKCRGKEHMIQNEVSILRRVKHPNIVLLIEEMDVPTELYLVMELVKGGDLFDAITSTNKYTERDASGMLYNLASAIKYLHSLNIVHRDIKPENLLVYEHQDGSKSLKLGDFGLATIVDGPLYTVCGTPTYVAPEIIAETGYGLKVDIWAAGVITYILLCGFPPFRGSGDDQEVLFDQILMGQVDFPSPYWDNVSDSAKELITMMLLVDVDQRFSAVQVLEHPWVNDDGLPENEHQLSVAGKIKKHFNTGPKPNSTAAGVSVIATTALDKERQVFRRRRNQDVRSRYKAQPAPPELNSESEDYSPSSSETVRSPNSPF

[6] = molecular target: Angiopoietin-1 receptor (Homo sapiens) (UniProt Q02763); assay: Selectivity interaction (KinomeScan (DiscoverX)) EUB0000666a TEK; settings: at 10 µM
[7] = molecular target: Serine/threonine-protein kinase N1 (Homo sapiens, UniProt Q16512); settings: at 10 µM
[8] = molecular target: Serine/threonine-protein kinase MRCK beta (Homo sapiens) (UniProt Q9Y5S2); assay: Selectivity interaction (KinomeScan (DiscoverX)) EUB0000607a CDC42BPB; settings: at 10 µM
[9] = molecular target: Cholecystokinin receptor type A (Homo sapiens) (UniProt P32238); assay: Selectivity interaction (Panel of non-epigenetic targets (kinases, GPCRs, ion channels, and transporters, Eurofins) ) EUB0000271b CCKAR; settings: at 1 µM
[10] = molecular target: DNA (cytosine-5)-methyltransferase 3B (Homo sapiens) (UniProt Q9UBC3); assay: Selectivity interaction (Methyltransferase screen (radiometric assays, panel of 8 PRMTs, 21 protein lysine methyltransferases, 3 DNA methyltransferases, and one RNA methyltransferase)) EUB0000271b DNMT3B
[11] = molecular target: Mitogen-activated protein kinase 11 (Homo sapiens) (UniProt Q15759); assay: Selectivity interaction (Kinase screening (Upstate/Millipore)) EUB0000604a MAPK11

Chain of Serine/threonine-protein kinase MRCK beta (Homo sapiens) (Q9Y5S2 whole entry): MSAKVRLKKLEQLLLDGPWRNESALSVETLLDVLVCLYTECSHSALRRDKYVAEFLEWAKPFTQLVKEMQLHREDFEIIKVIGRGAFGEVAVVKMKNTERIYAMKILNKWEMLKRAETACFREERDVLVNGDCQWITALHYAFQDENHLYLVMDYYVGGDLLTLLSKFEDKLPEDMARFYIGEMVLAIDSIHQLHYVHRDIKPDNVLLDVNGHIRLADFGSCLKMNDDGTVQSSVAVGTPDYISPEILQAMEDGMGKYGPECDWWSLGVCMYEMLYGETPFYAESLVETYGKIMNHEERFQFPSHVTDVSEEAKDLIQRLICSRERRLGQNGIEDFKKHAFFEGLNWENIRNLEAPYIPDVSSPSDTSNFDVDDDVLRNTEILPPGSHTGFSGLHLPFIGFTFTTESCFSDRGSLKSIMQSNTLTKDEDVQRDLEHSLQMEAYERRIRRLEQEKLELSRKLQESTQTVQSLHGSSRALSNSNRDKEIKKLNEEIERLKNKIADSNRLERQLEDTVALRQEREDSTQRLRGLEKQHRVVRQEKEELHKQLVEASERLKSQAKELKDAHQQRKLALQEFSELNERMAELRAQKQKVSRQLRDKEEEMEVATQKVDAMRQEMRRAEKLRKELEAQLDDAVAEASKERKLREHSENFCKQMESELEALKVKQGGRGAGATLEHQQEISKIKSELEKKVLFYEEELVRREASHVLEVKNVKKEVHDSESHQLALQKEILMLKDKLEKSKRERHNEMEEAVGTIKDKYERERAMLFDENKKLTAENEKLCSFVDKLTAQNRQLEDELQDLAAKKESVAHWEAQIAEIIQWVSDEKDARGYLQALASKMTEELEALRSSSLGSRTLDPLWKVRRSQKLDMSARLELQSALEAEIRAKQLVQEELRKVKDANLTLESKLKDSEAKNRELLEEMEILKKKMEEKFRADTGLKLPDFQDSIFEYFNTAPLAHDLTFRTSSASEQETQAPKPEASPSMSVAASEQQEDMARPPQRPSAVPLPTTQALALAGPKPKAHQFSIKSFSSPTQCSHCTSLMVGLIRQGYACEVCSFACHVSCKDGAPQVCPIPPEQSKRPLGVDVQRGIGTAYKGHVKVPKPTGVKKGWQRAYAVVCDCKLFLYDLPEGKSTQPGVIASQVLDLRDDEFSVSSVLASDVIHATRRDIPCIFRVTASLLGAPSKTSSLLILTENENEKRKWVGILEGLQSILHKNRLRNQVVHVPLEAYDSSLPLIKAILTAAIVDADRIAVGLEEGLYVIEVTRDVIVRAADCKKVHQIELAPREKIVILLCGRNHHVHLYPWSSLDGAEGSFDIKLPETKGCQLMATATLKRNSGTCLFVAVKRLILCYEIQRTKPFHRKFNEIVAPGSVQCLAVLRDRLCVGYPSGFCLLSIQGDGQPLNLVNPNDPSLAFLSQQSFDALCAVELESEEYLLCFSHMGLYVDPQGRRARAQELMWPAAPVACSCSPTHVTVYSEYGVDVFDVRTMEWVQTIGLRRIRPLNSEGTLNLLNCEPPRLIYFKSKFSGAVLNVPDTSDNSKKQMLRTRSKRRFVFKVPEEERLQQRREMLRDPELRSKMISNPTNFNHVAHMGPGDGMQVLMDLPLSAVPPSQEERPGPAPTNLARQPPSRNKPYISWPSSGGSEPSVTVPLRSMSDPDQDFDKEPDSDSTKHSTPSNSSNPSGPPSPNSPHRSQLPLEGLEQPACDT
Chain of Serine/threonine-protein kinase 24 (Homo sapiens) (Q9Y6E0 whole entry, looked up): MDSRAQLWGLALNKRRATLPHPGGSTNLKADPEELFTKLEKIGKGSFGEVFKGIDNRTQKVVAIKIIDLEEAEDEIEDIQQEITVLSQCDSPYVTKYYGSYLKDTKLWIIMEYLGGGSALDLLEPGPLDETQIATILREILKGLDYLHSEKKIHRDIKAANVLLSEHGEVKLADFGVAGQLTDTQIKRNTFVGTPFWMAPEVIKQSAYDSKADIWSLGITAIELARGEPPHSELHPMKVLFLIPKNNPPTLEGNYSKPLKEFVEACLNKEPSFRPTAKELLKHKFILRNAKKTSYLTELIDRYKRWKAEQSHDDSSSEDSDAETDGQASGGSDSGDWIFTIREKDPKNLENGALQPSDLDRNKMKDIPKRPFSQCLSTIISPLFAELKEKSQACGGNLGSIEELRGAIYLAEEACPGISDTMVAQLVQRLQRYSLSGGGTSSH
Chain of Protein kinase C beta type (P05771 2-671 limits assumed): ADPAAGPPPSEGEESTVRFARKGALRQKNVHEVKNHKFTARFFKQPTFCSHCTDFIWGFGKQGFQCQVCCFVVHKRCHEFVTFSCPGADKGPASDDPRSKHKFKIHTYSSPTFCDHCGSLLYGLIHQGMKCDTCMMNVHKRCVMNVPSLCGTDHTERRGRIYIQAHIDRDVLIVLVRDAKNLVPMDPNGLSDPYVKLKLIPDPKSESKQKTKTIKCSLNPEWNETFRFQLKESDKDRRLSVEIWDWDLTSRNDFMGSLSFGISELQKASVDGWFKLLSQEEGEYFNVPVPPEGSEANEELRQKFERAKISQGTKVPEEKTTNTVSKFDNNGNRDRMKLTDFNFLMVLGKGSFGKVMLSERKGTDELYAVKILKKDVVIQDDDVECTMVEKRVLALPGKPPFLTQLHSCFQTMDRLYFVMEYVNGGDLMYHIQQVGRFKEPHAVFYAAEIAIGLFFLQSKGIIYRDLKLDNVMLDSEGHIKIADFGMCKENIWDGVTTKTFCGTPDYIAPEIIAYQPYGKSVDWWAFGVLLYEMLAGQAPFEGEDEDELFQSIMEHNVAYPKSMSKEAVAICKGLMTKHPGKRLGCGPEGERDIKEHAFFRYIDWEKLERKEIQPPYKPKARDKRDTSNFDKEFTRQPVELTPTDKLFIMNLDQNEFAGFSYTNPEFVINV
Chain of Serine/threonine-protein kinase N1 (Q16512 2-942 limits assumed): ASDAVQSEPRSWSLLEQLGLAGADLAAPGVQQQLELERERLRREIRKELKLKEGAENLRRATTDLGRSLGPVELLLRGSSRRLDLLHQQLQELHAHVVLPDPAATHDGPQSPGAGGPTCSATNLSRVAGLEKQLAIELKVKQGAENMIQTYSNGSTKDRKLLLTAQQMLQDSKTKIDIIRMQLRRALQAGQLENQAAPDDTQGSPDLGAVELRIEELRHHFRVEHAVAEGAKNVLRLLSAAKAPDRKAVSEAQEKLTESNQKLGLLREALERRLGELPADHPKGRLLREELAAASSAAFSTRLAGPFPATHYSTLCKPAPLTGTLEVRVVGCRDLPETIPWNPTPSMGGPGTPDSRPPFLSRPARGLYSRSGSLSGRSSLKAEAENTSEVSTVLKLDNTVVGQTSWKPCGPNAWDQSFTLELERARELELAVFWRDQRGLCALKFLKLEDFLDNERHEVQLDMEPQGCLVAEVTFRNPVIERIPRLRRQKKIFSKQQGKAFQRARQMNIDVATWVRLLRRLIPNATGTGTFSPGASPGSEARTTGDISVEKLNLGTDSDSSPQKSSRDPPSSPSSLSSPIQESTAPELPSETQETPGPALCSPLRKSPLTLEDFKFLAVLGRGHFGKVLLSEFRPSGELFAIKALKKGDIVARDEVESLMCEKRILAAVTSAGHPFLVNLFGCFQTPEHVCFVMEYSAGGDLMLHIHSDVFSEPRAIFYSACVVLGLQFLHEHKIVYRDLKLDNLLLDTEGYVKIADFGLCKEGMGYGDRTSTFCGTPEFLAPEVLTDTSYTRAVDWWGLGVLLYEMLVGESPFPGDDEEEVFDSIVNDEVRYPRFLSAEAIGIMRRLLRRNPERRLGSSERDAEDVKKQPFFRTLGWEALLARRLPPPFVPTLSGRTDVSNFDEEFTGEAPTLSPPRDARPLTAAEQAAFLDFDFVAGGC
Chain of Angiopoietin-1 receptor (Homo sapiens) (Q02763 whole entry): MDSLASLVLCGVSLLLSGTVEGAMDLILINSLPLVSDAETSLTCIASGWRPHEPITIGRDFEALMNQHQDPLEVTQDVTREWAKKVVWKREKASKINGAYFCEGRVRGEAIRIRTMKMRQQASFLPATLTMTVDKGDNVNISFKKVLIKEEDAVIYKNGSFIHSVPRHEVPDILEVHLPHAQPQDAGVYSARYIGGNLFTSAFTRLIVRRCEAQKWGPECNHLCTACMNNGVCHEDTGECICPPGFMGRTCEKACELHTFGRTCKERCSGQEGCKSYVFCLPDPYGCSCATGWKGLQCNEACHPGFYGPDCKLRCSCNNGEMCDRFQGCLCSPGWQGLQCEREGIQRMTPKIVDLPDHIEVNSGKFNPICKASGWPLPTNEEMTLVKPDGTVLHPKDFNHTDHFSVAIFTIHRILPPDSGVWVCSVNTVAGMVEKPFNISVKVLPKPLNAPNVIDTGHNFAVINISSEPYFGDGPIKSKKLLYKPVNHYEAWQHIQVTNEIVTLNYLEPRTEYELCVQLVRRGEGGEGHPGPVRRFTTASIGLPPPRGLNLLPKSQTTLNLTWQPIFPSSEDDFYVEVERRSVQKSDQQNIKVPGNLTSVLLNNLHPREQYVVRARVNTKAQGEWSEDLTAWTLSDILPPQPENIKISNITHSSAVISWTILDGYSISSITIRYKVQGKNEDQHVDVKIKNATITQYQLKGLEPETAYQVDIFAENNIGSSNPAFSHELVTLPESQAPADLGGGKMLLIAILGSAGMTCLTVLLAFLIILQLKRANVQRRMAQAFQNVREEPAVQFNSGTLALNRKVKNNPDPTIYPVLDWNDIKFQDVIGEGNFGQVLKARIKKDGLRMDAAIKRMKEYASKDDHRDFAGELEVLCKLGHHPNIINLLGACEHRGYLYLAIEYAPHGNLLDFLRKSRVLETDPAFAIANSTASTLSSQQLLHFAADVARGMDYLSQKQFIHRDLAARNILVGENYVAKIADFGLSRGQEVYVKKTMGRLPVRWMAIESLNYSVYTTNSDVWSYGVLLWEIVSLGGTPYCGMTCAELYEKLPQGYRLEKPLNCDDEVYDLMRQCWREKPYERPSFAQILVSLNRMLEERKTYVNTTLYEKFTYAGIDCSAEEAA

Structure (SMILES): CC(C)(O)[C@H](F)CN1Cc2cc(NC(=O)c3cnn4cccnc34)c(N3CCOCC3)cc2C1=O
- dTM [1]: 0.1 K

Structure (SMILES): COc1cc(N(C)c2ccnc3ccc(C(F)(F)F)cc23)cc(OC)c1OC
- % binding [2]: 94%

Structure (SMILES): CCC(=O)N1CCN(c2ccc(-n3c(=O)ccc4cnc5ccc(-c6cnc7ccccc7c6)cc5c43)cc2C(F)(F)F)CC1
- % of control [3]: 78%

Structure (SMILES): Cc1ccc(-c2ccc3c(ccc4sc5c(c43)NC[C@@H](C)NC5=O)n2)cn1
- % of inhibition [4]: 8%

Structure (SMILES): CN(C(=O)c1cnn2cccnc12)c1cc2c(cc1N1CCOCC1)C(=O)N(C[C@@H](F)C(C)(C)O)C2
- dTM [5]: 0.8 K

Structure (SMILES): O=C(NOC[C@H](O)CO)c1ccc(F)c(F)c1Nc1ccc(I)cc1F
- % of control [6]: 100%

Structure (SMILES): Cc1cc([C@@H](C)Nc2ccccc2C(=O)O)c2nc(N3CCOCC3)cc(=O)n2c1 [AZD-6482]
- % of control [7]: 100%

Structure (SMILES): CNC(=O)Nc1ccc(-c2nc(N3CC4CCC(C3)O4)c3cnn(C4CCC5(CC4)OCCO5)c3n2)cc1
- % of control [8]: 100%

Structure (SMILES): Cc1cc(C)cc([C@@H]2c3cc(C)ccc3NC(=O)CN2C(=O)c2ccc(Br)s2)c1
- % of inhibition [9]: 1%
- % of activity ([10]; at 1 µM): 103%
- % of activity ([10]; at 10 µM): 98.3%

Structure (SMILES): Cc1cnc(Nc2ccc(F)cc2Cl)nc1-c1c[nH]c(C(=O)N[C@H](CO)c2cccc(Cl)c2)c1
- % of inhibition [11]: 25%
